Data reported in US20110076331A1, “Use of Deuterium Oxide as an Elastase Inhibitor” (priority 2008, published 2011).

Key:
brown Norwegian rats = assay: Animal model of allergic bronchial asthma (ovalbumin); type: in vivo, rat; settings: aerosol of isotonic D2O solution for 6 days before ovalbumin aerosol; after 24 hours
Protocol: The effect of D2O in allergic asthma was presented in an animal model of 10-week-old brown Norwegian rats (Roumestan et al., Resp Res 8:35-46, 2007). Sensitization of the animals occurred by repeated intraperitoneal injection of ovalbumin. The animals were then introduced to a climatized cage and constantly treated with an aerosol of isotonic H2O or D2O solution for 6 days. Asthma triggering by an ovalbumin-containing aerosol then occurred. The change in airway resistance was then determined as parameter by barometric plethysmography on the living animals after 24 hours. A significant intensification of airway resistance was found in the H2O-treated group.

[1] = test system: patients with leukocytoclastic skin vasculitis; assay: Half-side gel experiment in leukocytoclastic skin vasculitis; type: in vivo, human; settings: D2O-containing gel on lower leg three times a day, 4 days; vs H2O gel
Protocol: Leukocytoclastic skin vasculitis is characterized by recurring behavior. A special feature of this dermatosis is destruction of cutaneous capillaries by an inflammatory process in which neutrophil granulocytes participate almost exclusively. To check the effect of D2O-containing gel on the extent of cutaneous lesions patients with leukocytoclastic skin vasculitis were treated in a half-side experiment. Either an H2O- or D2O-containing gel were applied in randomized fashion on the right or left lower leg three times a day. After a treatment time of 4 days the treatments was compared by means of a clinical score that evaluates the number and expression of vasculitis lesions.

[2] = test system: patients with psoriasis vulgaris; assay: Half-side hydrogel experiment in psoriasis vulgaris; type: in vivo, human; settings: 2 wt % Carbopol 980 gel with 1 wt % urea, twice a day, after 4 weeks; vs H2O gel
Protocol: A half-side experiment was conducted by means of hydrogel to determine the effect of D2O in psoriasis vulgaris. The gel was a 2 wt % Carbopol 980 with 1 wt % urea. The pH value of the gel was set at 6.5 with NaOH solution. […] The local psoriasis severity index (LPSI) was used for evaluation (Henneicke-von Zepelin, H. H., Mrowietz, U., Färber, L., Bruck-Borchers, K., Schober, C., Huber, J., Lutz, G., Kohnen, R., Christophers, E., Welzel, D., Highly purified omega-3-polyunsaturated fatty acids for topical treatment of psoriasis. Results of a double-blind, placebo-controlled multicenter study. Br J Dermatol. 1993; 129:713-7). The patients were relied on to apply the content of tubes marked “right” and “left” twice a day on the corresponding lesions on the right or left elbow. A gel produced with D2O was found in one tube, the gel in the other tube was prepared with H2O. Division occurred randomly. LPSI was determined once a week.

Long-Evans rats = assay: Cerebral ischemia/reperfusion animal model; type: in vivo, rat; settings: D2O in isotonic saline infused 15 minutes before ischemia and right before reperfusion; vs H2O
Protocol: The effect of D2O on cerebral ischemia was investigated in an animal model. For this purpose cerebral ischemia was produced for 1 hour in adult Long-Evans rats by closure of both carotid arteries, which followed reperfusion over 24 hours. Final observation with evaluation of neurovegetative symptoms occurred (spontaneous activity, coordinated walking, stretching of the front paw and climbing). Damage to the brain tissue was then investigated histologically. In two experimental groups of three rats each, either D2O (experimental group) or H2O (control group) in isotonic saline was infused in the animals 15 minutes before initiation of ischemia and right before subsequent reperfusion.

[3] = test system: subjects with the minor form of RBA; assay: Gel treatment of recurring benign aphthosis (RBA); type: in vivo, human; settings: D2O gel (example 1) three times a day; three days after first application
Protocol: Eight volunteer subjects with the minor form of RBA (diameter of round to oval erosion is 3-5 mm) at locations of the oral mucosa readily accessible to optical inspection (and especially cheek mucosa and mucosa in the lower jaw area) were randomized into two groups of four subjects each (experimental group and control group) and the size (diameter) of the aphthae (initial value) was determined precisely at 0.5 mm optically. For size determination only the gray-covered eroded surface was considered and the red edge area was not considered. The first aphthosis symptoms of the subjects in both groups were at least 2 days old and at most 4 days old. The experimental group received a D2O gel prepared according to example 1 three times a day applied with an appropriate applicator to the erosion (aphtha). It was ensured that the applied gel covered the entire surface of the aphtha plus a 2-3 mm wide edge and was allowed to act at least for 5 minutes. The control group was treated similarly with an identical dose and application of an H2O prepared according to example 1. […] For the experimental group an average reduction in diameter relative to the initial value of 30±10% can be detected and in the control group an average increase in aphthae diameter by 15±10% was observed.

Wistar rats = assay: Animal model of allergic conjunctivitis (chicken protein); type: in vivo, rat; settings: D2O-based isotonic saline trickled together with chicken protein
Protocol: A corresponding animal model was used to test the efficacy of eye drops prepared with D2O (Minami et al., Biol. Pharm. Bull 28:473-476, 2005). In 6-week-old Wistar rats an allergy to chicken protein was produced by injection of chicken protein together with alum and 10^10 B. pertussis into the soles of the feet and then a booster with chicken protein in the back area. Before the experiment the animals were kept in a climatized cage and after 10 minutes of adaptation 5 μL chicken protein solution was trickled into each eye. The animals were then transferred to an observation cage and the scratching movements in the direction of the eyes counted over a period of 20 minutes. Hyperemia and conjunctival edema were then determined.
To investigate an effect of D2O on the symptoms caused by chicken protein either H2O- or D2O-based isotonic saline was trickled together with the chicken protein in a double-blind design.

For `[2H]O[2H]` [D2O, deuterium oxide], the “change in airway resistance (barometric plethysmography)” value (brown Norwegian rats) was “only a slight increase in airway resistance”, the “clinical score (number and expression of vasculitis lesions)” value [1] was “distinct reduction of the clinical score” and the “local psoriasis severity index (LPSI)” value [2] was “significant reduction of LPSI”. For the same compound, the “reperfusion damage (granulocytes in histological sections, neurological behavior)” value (Long-Evans rats) was “significant effect on the reduction in reperfusion damage”, the “average reduction in aphthae diameter relative to the initial value” [3] was 30±10% and the “number of scratching movements in the eye direction” value (Wistar rats; after 20 minutes, vs H2O) was “significant reduction in the number of scratching movements”. For the same compound, the hyperemia and edema (Wistar rats; vs H2O group) was “reduced”.
